The experiment addresses T1, human MAGL (His-hMAGL) (Homo sapiens, UniProt Q99685).
T1 construct: made in house; host or cells: Escherichia coli BL21(DE3)
T1 sequence (Q99685 1-303): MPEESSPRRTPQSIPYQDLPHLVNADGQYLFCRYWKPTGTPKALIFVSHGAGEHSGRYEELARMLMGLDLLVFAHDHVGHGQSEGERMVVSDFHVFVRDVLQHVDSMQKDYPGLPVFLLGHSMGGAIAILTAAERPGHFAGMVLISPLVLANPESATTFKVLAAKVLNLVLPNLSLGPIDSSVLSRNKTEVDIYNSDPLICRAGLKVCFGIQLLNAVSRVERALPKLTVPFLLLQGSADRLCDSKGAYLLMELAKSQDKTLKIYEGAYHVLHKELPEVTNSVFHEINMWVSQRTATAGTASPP
Briefly: Measurement of MAGL inhibitory activity by mass spectrometry. Format: biochemical. Particulars: MAGL inhibitory rate, test compound 10 μM, His-hMAGL, substrate 2-arachidonylglycerol, RapidFire-mass spectrometry. In a few lines:
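His-tagged human MAGL was reacted with 150 μM 2-arachidonylglycerol substrate (stock, added by 5 μL) for 10 min at room temperature, then stopped with formic acid. Arachidonic acid product was quantified by RapidFire–triple-quadrupole MS in negative SRM mode, corrected by arachidonic acid-d8, and converted to percent inhibition.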
For the compound `Cc1nc(C)c(-c2ccc(N3CC(N4CCN(C(=O)c5nccs5)CC4)CC3=O)cc2)s1` (centres unmarked) [Example 189, 1-(4-(2,4-dimethyl-1,3-thiazol-5-yl)phenyl)-4-(4-(1,3-thiazol-2-ylcarbonyl)piperazin-1-yl)pyrrolidin-2-one], the inhibition at 10 µM worked out at 97%. With `CC(=O)Nc1cccc(-c2ccc(N3CC(N4CCN(C(=O)c5nccs5)CC4)CC3=O)cc2)c1` (centres unmarked) [Example 191, N-(4′-(2-oxo-4-(4-(1,3-thiazol-2-ylcarbonyl)piperazin-1-yl)pyrrolidin-1-yl)biphenyl-3-yl)acetamide], the inhibition at 10 µM worked out at 96%.

On to `NS(=O)(=O)c1ccc(-c2ccc(N3CC(N4CCN(C(=O)c5nccs5)CC4)CC3=O)cc2)cc1` (centres unmarked) [Example 193, 4′-(2-oxo-4-(4-(1,3-thiazol-2-ylcarbonyl)piperazin-1-yl)pyrrolidin-1-yl)biphenyl-4-sulfonamide], for which the inhibition at 10 µM was found to be 97%. Regarding `NS(=O)(=O)c1cccc(-c2ccc(N3CC(N4CCN(C(=O)c5nccs5)CC4)CC3=O)cc2)c1` (centres unmarked) [Example 194, 4′-(2-oxo-4-(4-(1,3-thiazol-2-ylcarbonyl)piperazin-1-yl)pyrrolidin-1-yl)biphenyl-3-sulfonamide], the inhibition at 10 µM was 96%. Consider `O=C(c1nccs1)N1CCN(C2CC(=O)N(c3ccc(-c4ccncc4)cc3)C2)CC1` (centres unmarked) [Example 196, 1-(4-(pyridin-4-yl)phenyl)-4-(4-(1,3-thiazol-2-ylcarbonyl)piperazin-1-yl)pyrrolidin-2-one], for which the inhibition at 10 µM is 83%. In the case of `O=C(c1nccs1)N1CCN(C2CC(=O)N(c3ccc(-c4cccnc4)cc3)C2)CC1` (centres unmarked) [Example 197, 1-(4-(pyridin-3-yl)phenyl)-4-(4-(1,3-thiazol-2-ylcarbonyl)piperazin-1-yl)pyrrolidin-2-one], the inhibition at 10 µM came to 89%.

Take `O=C(c1nccs1)N1CCN(C2CC(=O)N(c3cccc(-c4cccnc4Cl)c3)C2)CC1` (centres unmarked) [Example 199, 1-(3-(2-chloropyridin-3-yl)phenyl)-4-(4-(1,3-thiazol-2-ylcarbonyl)piperazin-1-yl)pyrrolidin-2-one]: the inhibition at 10 µM came to 101%. With `O=C1Cc2ccc(-c3cccc(N4CC(N5CCN(C(=O)c6nccs6)CC5)CC4=O)c3)cc2N1` (centres unmarked) [Example 200, 6-(3-(2-oxo-4-(4-(1,3-thiazol-2-ylcarbonyl)piperazin-1-yl)pyrrolidin-1-yl)phenyl)-1,3-dihydro-2H-indol-2-one] the figure was 98%; with `O=C(c1nccs1)N1CCN(C2CC(=O)N(c3ccnc(-c4ccccc4)c3)C2)CC1` (centres unmarked) [Example 201, 1-(2-phenylpyridin-4-yl)-4-(4-(1,3-thiazol-2-ylcarbonyl)piperazin-1-yl)pyrrolidin-2-one], 84%; with `Cc1ccncc1-c1cccc(N2CC(N3CCN(C(=O)c4nccs4)CC3)CC2=O)c1` (centres unmarked) [Example 202, 1-(3-(4-methylpyridin-3-yl)phenyl)-4-(4-(1,3-thiazol-2-ylcarbonyl)piperazin-1-yl)pyrrolidin-2-one], 102%. Consider `Cc1cnccc1-c1cccc(N2CC(N3CCN(C(=O)c4nccs4)CC3)CC2=O)c1` (centres unmarked) [Example 203, 1-(3-(3-methylpyridin-4-yl)phenyl)-4-(4-(1,3-thiazol-2-ylcarbonyl)piperazin-1-yl)pyrrolidin-2-one], for which the inhibition at 10 µM is 99%. For the compound `Cc1cc(-c2cccc(N3CC(N4CCN(C(=O)c5nccs5)CC4)CC3=O)c2)ccn1` (centres unmarked) [Example 204, 1-(3-(2-methylpyridin-4-yl)phenyl)-4-(4-(1,3-thiazol-2-ylcarbonyl)piperazin-1-yl)pyrrolidin-2-one], the inhibition at 10 µM was determined as 101%.

As for `O=C(c1nccs1)N1CCN([C@@H]2CC(=O)N(c3ccc4c(cnn4-c4ccc(F)cc4)c3)C2)CC1` [Example 205, (4R)-1-(1-(4-fluorophenyl)-1H-indazol-5-yl)-4-(4-(1,3-thiazol-2-ylcarbonyl)piperazin-1-yl)pyrrolidin-2-one], the inhibition at 10 µM was found to be 100%. In the case of `Cc1cncc(-c2cccc(N3CC(N4CCN(C(=O)c5nccs5)CC4)CC3=O)c2)c1` (centres unmarked) [Example 206, 1-(3-(5-methylpyridin-3-yl)phenyl)-4-(4-(1,3-thiazol-2-ylcarbonyl)piperazin-1-yl)pyrrolidin-2-one], the inhibition at 10 µM came to 98%. On to `O=C(c1nccs1)N1CCN(C2CC(=O)N(c3ccc(-c4ccco4)cc3)C2)CC1` (centres unmarked) [Example 207, 1-(4-(2-furyl)phenyl)-4-(4-(1,3-thiazol-2-ylcarbonyl)piperazin-1-yl)pyrrolidin-2-one], for which the inhibition at 10 µM was determined as 97%. In the case of `Cc1cccc(-c2ccc(N3CC(N4CCN(C(=O)c5nccs5)CC4)CC3=O)cc2)c1` (centres unmarked) [Example 208] it was 101%; in that of `N#Cc1ccccc1-c1ccc(N2CC(N3CCN(C(=O)c4nccs4)CC3)CC2=O)cc1` (centres unmarked) [Example 209, 4′-(2-oxo-4-(4-(1,3-thiazol-2-ylcarbonyl)piperazin-1-yl)pyrrolidin-1-yl)biphenyl-2-carbonitrile], 96%.

Take `N#Cc1ccc(-c2ccc(N3CC(N4CCN(C(=O)c5nccs5)CC4)CC3=O)cc2)cc1` (centres unmarked) [Example 210, 4′-(2-oxo-4-(4-(1,3-thiazol-2-ylcarbonyl)piperazin-1-yl)pyrrolidin-1-yl)biphenyl-4-carbonitrile]: the inhibition at 10 µM stood at 91%. Turning to `O=C(c1nccs1)N1CCN(C2CC(=O)N(c3ccc(-c4cnn5ccccc45)cc3)C2)CC1` (centres unmarked) [Example 212, 1-(4-(pyrazolo[1,5-a]pyridin-3-yl)phenyl)-4-(4-(1,3-thiazol-2-ylcarbonyl)piperazin-1-yl)pyrrolidin-2-one], the inhibition at 10 µM was determined as 100%. With `O=C(c1nccs1)N1CCN(C2CC(=O)N(c3ccc(-c4ccccc4)cc3)C2)CC1` (centres unmarked) [Example 213, 1-(biphenyl-4-yl)-4-(4-(1,3-thiazol-2-ylcarbonyl)piperazin-1-yl)pyrrolidin-2-one], the inhibition at 10 µM was found to be 100%. `NC(=O)Cc1cccc(-c2ccc(N3CC(N4CCN(C(=O)c5nccs5)CC4)CC3=O)cc2)c1` (centres unmarked) [Example 214, 2-(4′-(2-oxo-4-(4-(1,3-thiazol-2-ylcarbonyl)piperazin-1-yl)pyrrolidin-1-yl)biphenyl-3-yl)acetamide]: the inhibition at 10 µM worked out at 93%. For `O=C(c1nccs1)N1CCN(C2CC(=O)N(c3ccc(-c4ccccc4C(F)(F)F)cc3)C2)CC1` (centres unmarked) [Example 215, 4-(4-(1,3-thiazol-2-ylcarbonyl)piperazin-1-yl)-1-(2′-(trifluoromethyl)biphenyl-4-yl)pyrrolidin-2-one], the inhibition at 10 µM turned out to be 101%. Turning to `CS(=O)(=O)Nc1cccc(-c2ccc(N3CC(N4CCN(C(=O)c5nccs5)CC4)CC3=O)cc2)c1` (centres unmarked) [Example 216, N-(4′-(2-oxo-4-(4-(1,3-thiazol-2-ylcarbonyl)piperazin-1-yl)pyrrolidin-1-yl)biphenyl-3-yl)methanesulfonamide], the inhibition at 10 µM was 97%.

On to `O=C(c1nccs1)N1CCN(C2CC(=O)N(c3ccc(-c4ccsc4)cc3)C2)CC1` (centres unmarked) [Example 217, 4-(4-(1,3-thiazol-2-ylcarbonyl)piperazin-1-yl)-1-(4-(3-thienyl)phenyl)pyrrolidin-2-one], for which the inhibition at 10 µM turned out to be 98%. For `O=C(c1nccs1)N1CCN(C2CC(=O)N(c3ccc(-c4cccs4)cc3)C2)CC1` (centres unmarked) [Example 218, 4-(4-(1,3-thiazol-2-ylcarbonyl)piperazin-1-yl)-1-(4-(2-thienyl)phenyl)pyrrolidin-2-one], the inhibition at 10 µM was determined as 99%. In the case of `Cc1ccc(-c2ccc(N3CC(N4CCN(C(=O)c5nccs5)CC4)CC3=O)cc2)cc1` (centres unmarked) [Example 219, 1-(4′-methylbiphenyl-4-yl)-4-(4-(1,3-thiazol-2-ylcarbonyl)piperazin-1-yl)pyrrolidin-2-one] it was 102%; in that of `Cc1ccccc1-c1cccc(N2CC(N3CCN(C(=O)c4cscn4)CC3)CC2=O)c1` (centres unmarked) [Example 220, 1-(2′-methylbiphenyl-3-yl)-4-(4-(1,3-thiazol-4-ylcarbonyl)piperazin-1-yl)pyrrolidin-2-one], 103%; in that of `Cc1ccccc1-c1cccc(N2CC(N3CCN(C(=O)c4ncco4)CC3)CC2=O)c1` (centres unmarked) [Example 221, 1-(2′-methylbiphenyl-3-yl)-4-(4-(1,3-oxazol-2-ylcarbonyl)piperazin-1-yl)pyrrolidin-2-one], 101%. In the case of `O=C1Cc2cccc(-c3cccc(N4CC(N5CCN(C(=O)c6nccs6)CC5)CC4=O)c3)c2N1` (centres unmarked) [Example 222, 7-(3-(2-oxo-4-(4-(1,3-thiazol-2-ylcarbonyl)piperazin-1-yl)pyrrolidin-1-yl)phenyl)-1,3-dihydro-2H-indol-2-one] it was 98%; in that of `O=C(c1cscn1)N1CCN(C2CC(=O)N(c3cccc(-c4cccnc4Cl)c3)C2)CC1` (centres unmarked) [Example 223, 1-(3-(2-chloropyridin-3-yl)phenyl)-4-(4-(1,3-thiazol-4-ylcarbonyl)piperazin-1-yl)pyrrolidin-2-one], 101%.

On to `O=C(c1ncco1)N1CCN(C2CC(=O)N(c3cccc(-c4cccnc4Cl)c3)C2)CC1` (centres unmarked) [Example 224, 1-(3-(2-chloropyridin-3-yl)phenyl)-4-(4-(1,3-oxazol-2-ylcarbonyl)piperazin-1-yl)pyrrolidin-2-one], for which the inhibition at 10 µM worked out at 100%.

Regarding `CC1C(N2CCN(C(=O)c3nccs3)CC2)CC(=O)N1c1ccc(Oc2ccccc2)cc1` (centres unmarked) [Example 228, 5-Methyl-1-(4-phenoxyphenyl)-4-(4-(1,3-thiazol-2-ylcarbonyl)piperazin-1-yl)pyrrolidin-2-one], the inhibition at 10 µM turned out to be 96%.

A word on the inhibition: it is the change of the read-out against control, counted positive when it falls.

The values are drawn from US9624170B2, “4-(piperrazin-1-yl)-pyrrolidin-2-one compounds as monoacylglycerol lipase (MAGL) inhibitors” (TAKEDA PHARMACEUTICAL COMPANY LIMITED, priority 2013, dated 2017).
